Measurements reported in patent US9272987B2, “Diazeniumdiolate cyclohexyl derivatives” (Merck Sharp & Dohme Corp., priority 2011, dated 2016).

System: Male beagle dogs
Test: canine telemetry protocol, blood pressure reduction efficacy
Format: in vivo
Settings: change from baseline, 3 mg/kg oral gavage; for ΔPP (mmHg) 1-6 h / ΔPP (mmHg) 6-12 h / ΔPP (mmHg) 12-18 h: pulse pressure; for ΔSBP (mmHg) 1-6 h / ΔSBP (mmHg) 6-12 h / ΔSBP (mmHg) 12-18 h: systolic blood pressure
Method: Compounds of the invention were evaluated for blood pressure reduction efficacy using the following canine telemetry protocol described below.
Male beagle dogs (approximately 1-3 years old) with a body weight of between 10 and 16 kg were surgically implanted with DSI radiotelemetry devices (model: TL11M2-D70-PCT). Briefly, under an inhalant anesthesia, isoflurane/oxygen mixture (1-3.5%/to effect), the body of the telemetry device was positioned and secured intra-abdominally. Subsequently, the arterial catheter of the telemetry device was passed subcutaneously to the inguinal area and introduced into the femoral artery and advanced to the level of the descending aorta. The catheter was secured with 2-0 silk ligatures. The muscle and underlying fascia was closed over the catheter using absorbable suture and the skin was closed using non-absorbable suture. The animals were allowed a minimum recovery period of 2 weeks between surgery and the evaluation of test compounds.
Compound evaluation consisted of a 3 day paradigm at a 3 mg/kg dose. On the first day, no compounds were administered during a 24 hour period of baseline data collection. Blood pressure and heart rate data were collected continuously for one minute periods at 10 minute intervals. On the days of compound administration half the animals received test article with the other half receiving the vehicle used for compound formulation. All test materials were administered by oral gavage in a volume of 1 mL/kg. Data are expressed either as raw values (mm Hg or beats per minute) or as the change from baseline (average value for about 12 hours in low activity period prior to dosing). Change is SBP (systolic blood pressure) and PP (pulse pressure) over time is shown below: […]

Row | Molecule | ΔPP (mmHg) 1-6 h [mmHg] | ΔPP (mmHg) 6-12 h [mmHg] | ΔPP (mmHg) 12-18 h [mmHg] | ΔSBP (mmHg) 1-6 h [mmHg] | ΔSBP (mmHg) 6-12 h [mmHg] | ΔSBP (mmHg) 12-18 h [mmHg]
1 | CN(/[N+]([O-])=N/OC1CCCCC1)C(C)(C)C [Example 2] | −9 | −11 | −12 | −11 | −9 | −9
2 | CN(/[N+]([O-])=N/OC1CCC(F)(F)CC1)C(C)(C)C [Example 9, O^2-(4,4-difluorocyclohexyl) 1-(N-tert-butyl-N-methylamino)diazen-1-ium-1,2-diolate] | −7 | −8 | −8 | −8 | −12 | −13
3 | O^2-(trans-4-hydroxy-4-phenylcyclohexyl) 1-(N-tert-butyl-N-methylamino)diazen-1-ium-1,2-diolate [Example 19] | −7 | −9 | −9 | −11 | −12 | −15
4 | O^2-(trans-4-phenylcyclohexyl) 1-(N-tert-butyl-N-methylamino)diazen-1-ium-1,2-diolate [Example 33] | −7 | −12 | −11 | −9 | −15 | −9
